The values that follow are results of earlier work, collected in US20240307345A1, “R-MDMA and S-MDMA TO ASSIST PSYCHOTHERAPY” (Universitatsspital Basel, priority 2022, published 2024).

SMILES strings stand for the structures.

One series deals with prolactin (PRL). The conditions noted are these: preclinical research; cited from earlier work.
Series [1] relates to mice. The conditions noted are these: cited from earlier work.
In series [2] the test system is mice. As to conditions: cited from earlier work. This is another data set of the same source.
A further series concerns humans. The conditions noted are these: earlier human study; R-MDMA doses up to 200 mg; cited from earlier work.
The subject of series [3] is dopamine (DA), norepinephrine (NE), serotonin (5-HT), and oxytocin. As to conditions: preclinical research; cited from earlier work.
The conditions of series [4]: administered repeatedly at high doses; cited from earlier work.
In a further series the test system is serotonin. The conditions noted are these: rat, in vivo; cited from earlier work.

With `CN[C@H](C)Cc1ccc2c(c1)OCO2` [R-MDMA, R(−)-MDMA], the “release of prolactin (PRL)” value in the series with prolactin (PRL) was “release prolactin”. Besides, the “peak effects on prosocial behaviors” value in the series with mice [1] is recorded as “greater peak effects than S-MDMA”.

On to `CN[C@@H](C)Cc1ccc2c(c1)OCO2` [S-MDMA, S(+)-MDMA], for which the lethal doses entry in the series with mice [2] was “similar”. For the same compound, the activity in humans result in the series with humans is “more active than the R-enantiomer”. In addition, the “release of dopamine (DA), norepinephrine (NE), serotonin (5-HT), and oxytocin” value in series [3] is recorded as “mainly releases”. In addition, the neurotoxicity entry in series [4] was “more neurotoxic than R-MDMA”. Besides, in the series with serotonin, the depleting serotonin entry is “more effective”.
